For 19 compounds, MIC and Activity results are on record in ChEMBL document CHEMBL1926526, “Mefloquine-oxazolidine derivatives, derived from mefloquine and arenecarbaldehydes: In vitro activity including against the multidrug-resistant tuberculosis strain T113” (Bioorg Med Chem, 2012).

≈ marks a conversion by molar mass, not a printed value. Calls of active or inactive are those of the source. The calls are words filed in the database; no cut-off is given here.

In this experiment the test system is Mycobacterium tuberculosis. Kind of experiment: Antimycobacterial activity against multiple drug-resistant Mycobacterium tuberculosis isolate T113 by alamar blue assay. It is filed as functional. (Alamar Blue is a resazurin reagent that responds to reducing activity.)
With `COc1cccc(C2O[C@@H](c3cc(C(F)(F)F)nc4c(C(F)(F)F)cccc34)[C@H]3CCCCN23)c1` (mixture of isomers), 25.2 µM was the least that counted as inhibitory (MIC).

`COc1ccc(C2O[C@@H](c3cc(C(F)(F)F)nc4c(C(F)(F)F)cccc34)[C@H]3CCCCN23)cc1` (mixture of isomers): the lowest concentration to inhibit growth (MIC) was 25.2 µM. That is a double-digit micromolar value.

Take `Fc1ccc(C2O[C@@H](c3cc(C(F)(F)F)nc4c(C(F)(F)F)cccc34)[C@H]3CCCCN23)cc1` (mixture of isomers): the minimum inhibitory concentration (MIC) – broadly, the lowest concentration that inhibits growth of the organism – is 25.8 µM. The MIC values of the last two compounds are within 1.5-fold of each other.

On to `Oc1ccccc1C1O[C@@H](c2cc(C(F)(F)F)nc3c(C(F)(F)F)cccc23)[C@H]2CCCCN12` (mixture of isomers), for which the MIC stood at 25.9 µM.

Compound `Oc1ccc(C2O[C@@H](c3cc(C(F)(F)F)nc4c(C(F)(F)F)cccc34)[C@H]3CCCCN23)cc1` (mixture of isomers) gave an MIC of 25.9 µM.

The compound `COc1ccccc1C1O[C@@H](c2cc(C(F)(F)F)nc3c(C(F)(F)F)cccc23)[C@H]2CCCCN12` (mixture of isomers) had an MIC of 12.6 µM.

In the case of `O=[N+]([O-])c1ccc(C2O[C@@H](c3cc(C(F)(F)F)nc4c(C(F)(F)F)cccc34)[C@H]3CCCCN23)s1` (mixture of isomers), the MIC worked out at 12.1 µM.

As for `FC(F)(F)c1cc([C@@H]2OC(c3cccc(Cl)c3Cl)N3CCCC[C@H]23)c2cccc(C(F)(F)F)c2n1` (mixture of isomers), the outcome was inactive.

As for `FC(F)(F)c1cc([C@@H]2OC(c3ccc(Cl)c(Cl)c3)N3CCCC[C@H]23)c2cccc(C(F)(F)F)c2n1` (mixture of isomers), the outcome was inactive.

For `FC(F)(F)c1cc([C@@H]2OC(c3ccc(Cl)cc3Cl)N3CCCC[C@H]23)c2cccc(C(F)(F)F)c2n1` (mixture of isomers), the result was inactive.

Consider `FC(F)(F)c1cc([C@@H]2OC(c3c(Cl)cccc3Cl)N3CCCC[C@H]23)c2cccc(C(F)(F)F)c2n1` (mixture of isomers), for which the outcome was inactive.

`COc1cccc(C2O[C@@H](c3cc(C(F)(F)F)nc4c(C(F)(F)F)cccc34)[C@H]3CCCCN23)c1OC` (mixture of isomers) came in with an MIC of 11.9 µM.

Compound `CCOc1cccc(C2O[C@@H](c3cc(C(F)(F)F)nc4c(C(F)(F)F)cccc34)[C@H]3CCCCN23)c1` (mixture of isomers) had an MIC of 24.5 µM. This MIC is about 2.1-fold higher than that of the compound before.

`COc1cc(C2O[C@@H](c3cc(C(F)(F)F)nc4c(C(F)(F)F)cccc34)[C@H]3CCCCN23)cc(OC)c1OC` (mixture of isomers): the MIC came out at 22.5 µM.

As to `FC(F)(F)c1cc([C@@H]2OC(c3ccccc3)N3CCCC[C@H]23)c2cccc(C(F)(F)F)c2n1` (mixture of isomers), the MIC stood at 26.8 µM.

For `O=[N+]([O-])c1ccc(C2O[C@@H](c3cc(C(F)(F)F)nc4c(C(F)(F)F)cccc34)[C@H]3CCCCN23)o1` (mixture of isomers), the MIC was determined as 99.8 µM.

`FC(F)(F)c1cc([C@@H]2OC(c3ncc[nH]3)N3CCCC[C@H]23)c2cccc(C(F)(F)F)c2n1` (mixture of isomers) registered an MIC of 27.4 µM.

In turn, `CC[C@@H](CO)NCCN[C@@H](CC)CO` [ETHAMBUTOL] returned an MIC of 61.2 µM (≈ 12.5 µg/mL).

With `OC(c1cc(C(F)(F)F)nc2c(C(F)(F)F)cccc12)C1CCCCN1` (centres undefined) [MEFLOQUINE], the MIC was determined as 33 µM (≈ 12.5 µg/mL).
